Measurements reported in PubChem BioAssay (NCI).
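Interpolation was linear, between the two tested concentrations surrounding the appropriate level; five concentrations were tested over 48 hours in 96-well plates. Abbreviation: GI50, concentration required for 50% inhibition of growth. TGI: concentration producing complete growth inhibition.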

Columns and labels:
Experiment in all cases: growth of human tumour cells (NCI), 48 h
786-0 renal = system: 786-0 renal
A498 renal = system: A498 renal
A549 NSCLC = system: A549 NSCLC
ACHN renal = system: ACHN renal
BT-549 breast = system: BT-549 breast
CAKI-1 renal = system: CAKI-1 renal
CCRF-CEM leukemia = system: CCRF-CEM leukemia
COLO 205 colon = system: COLO 205 colon
DU-145 prostate = system: DU-145 prostate
EKVX NSCLC = system: EKVX NSCLC
HCC-2998 colon = system: HCC-2998 colon
HCT-116 colon = system: HCT-116 colon
HCT-15 colon = system: HCT-15 colon
HL-60(TB) leukemia = system: HL-60(TB) leukemia
HOP-62 NSCLC = system: HOP-62 NSCLC
HOP-92 NSCLC = system: HOP-92 NSCLC
HS 578T breast = system: HS 578T breast
HT29 colon = system: HT29 colon
IGROV1 ovarian = system: IGROV1 ovarian
K-562 leukemia = system: K-562 leukemia
KM12 colon = system: KM12 colon
LOX IMVI melanoma = system: LOX IMVI melanoma
M14 melanoma = system: M14 melanoma
MALME-3M melanoma = system: MALME-3M melanoma
MCF7 breast = system: MCF7 breast
MDA-MB-231 breast = system: MDA-MB-231 breast
MDA-MB-435 = system: MDA-MB-435
MOLT-4 leukemia = system: MOLT-4 leukemia
NCI-H226 lung = system: NCI-H226 lung
NCI-H460 lung = system: NCI-H460 lung
NCI-H522 lung = system: NCI-H522 lung
NCI/ADR-RES ovarian = system: NCI/ADR-RES ovarian
OVCAR-3 ovarian = system: OVCAR-3 ovarian
OVCAR-4 ovarian = system: OVCAR-4 ovarian
OVCAR-5 ovarian = system: OVCAR-5 ovarian
OVCAR-8 ovarian = system: OVCAR-8 ovarian
PC-3 prostate = system: PC-3 prostate
RPMI-8226 leukemia = system: RPMI-8226 leukemia
RXF 393 renal = system: RXF 393 renal
SF-268 CNS = system: SF-268 CNS
SF-295 CNS = system: SF-295 CNS
SF-539 CNS = system: SF-539 CNS
SK-MEL-2 melanoma = system: SK-MEL-2 melanoma
SK-MEL-28 melanoma = system: SK-MEL-28 melanoma
SK-MEL-5 melanoma = system: SK-MEL-5 melanoma
SK-OV-3 ovarian = system: SK-OV-3 ovarian
SN12C renal = system: SN12C renal
SNB-19 CNS = system: SNB-19 CNS
SNB-75 CNS = system: SNB-75 CNS
SW-620 colon = system: SW-620 colon
T-47D breast = system: T-47D breast
TK-10 renal = system: TK-10 renal
U251 CNS = system: U251 CNS
UACC-257 melanoma = system: UACC-257 melanoma
UACC-62 melanoma = system: UACC-62 melanoma
UO-31 renal = system: UO-31 renal

C#Cc1nc(C2=C(C)/C(=N/OCc3ccccc3)CC2)cs1
GI50 (786-0 renal): 1.63 µM
TGI (786-0 renal): 3.12 µM
GI50 (A498 renal): > 100 µM
TGI (A498 renal): > 100 µM
GI50 (A549 NSCLC): 43.4 µM
TGI (A549 NSCLC): > 100 µM
GI50 (ACHN renal): 2.91 µM
TGI (ACHN renal): > 100 µM
GI50 (BT-549 breast): 15.5 µM
TGI (BT-549 breast): 33.9 µM
GI50 (CAKI-1 renal): 32.6 µM
TGI (CAKI-1 renal): > 100 µM
GI50 (CCRF-CEM leukemia): 3.28 µM
TGI (CCRF-CEM leukemia): 15.6 µM
GI50 (COLO 205 colon): > 100 µM
TGI (COLO 205 colon): > 100 µM
GI50 (DU-145 prostate): > 100 µM
TGI (DU-145 prostate): > 100 µM
GI50 (EKVX NSCLC): > 100 µM
TGI (EKVX NSCLC): > 100 µM
GI50 (HCC-2998 colon): > 100 µM
TGI (HCC-2998 colon): > 100 µM
GI50 (HCT-116 colon): 31.9 µM
TGI (HCT-116 colon): > 100 µM
GI50 (HCT-15 colon): 27.8 µM
TGI (HCT-15 colon): > 100 µM
GI50 (HL-60(TB) leukemia): 17.5 µM
TGI (HL-60(TB) leukemia): 40.9 µM
GI50 (HOP-62 NSCLC): > 100 µM
TGI (HOP-62 NSCLC): > 100 µM
GI50 (HOP-92 NSCLC): 5.71 µM
TGI (HOP-92 NSCLC): 24.5 µM
GI50 (HS 578T breast): 71.4 µM
TGI (HS 578T breast): > 100 µM
GI50 (HT29 colon): 31 µM
TGI (HT29 colon): > 100 µM
GI50 (IGROV1 ovarian): 1.97 µM
TGI (IGROV1 ovarian): 4.29 µM
GI50 (K-562 leukemia): 40.4 µM
TGI (K-562 leukemia): > 100 µM
GI50 (KM12 colon): > 100 µM
TGI (KM12 colon): > 100 µM
GI50 (LOX IMVI melanoma): 0.199 µM
TGI (LOX IMVI melanoma): 0.444 µM
GI50 (M14 melanoma): 74.8 µM
TGI (M14 melanoma): > 100 µM
GI50 (MALME-3M melanoma): 8.37 µM
TGI (MALME-3M melanoma): 30.6 µM
GI50 (MCF7 breast): 21.6 µM
TGI (MCF7 breast): > 100 µM
GI50 (MDA-MB-231 breast): 32.2 µM
TGI (MDA-MB-231 breast): > 100 µM
GI50 (MDA-MB-435): > 100 µM
TGI (MDA-MB-435): > 100 µM
GI50 (MOLT-4 leukemia): 22.4 µM
TGI (MOLT-4 leukemia): 87.6 µM
GI50 (NCI-H226 lung): 13.5 µM
TGI (NCI-H226 lung): > 100 µM
GI50 (NCI-H460 lung): 44.2 µM
TGI (NCI-H460 lung): > 100 µM
GI50 (NCI-H522 lung): 5.23 µM
TGI (NCI-H522 lung): 23.3 µM
GI50 (NCI/ADR-RES ovarian): 40.1 µM
TGI (NCI/ADR-RES ovarian): > 100 µM
GI50 (OVCAR-3 ovarian): > 100 µM
TGI (OVCAR-3 ovarian): > 100 µM
GI50 (OVCAR-4 ovarian): 50.9 µM
TGI (OVCAR-4 ovarian): > 100 µM
GI50 (OVCAR-5 ovarian): 11.7 µM
TGI (OVCAR-5 ovarian): > 100 µM
GI50 (OVCAR-8 ovarian): 47.8 µM
TGI (OVCAR-8 ovarian): > 100 µM
GI50 (PC-3 prostate): 36.8 µM
TGI (PC-3 prostate): > 100 µM
GI50 (RPMI-8226 leukemia): 5.74 µM
TGI (RPMI-8226 leukemia): 38.3 µM
GI50 (RXF 393 renal): 2.76 µM
TGI (RXF 393 renal): 21.7 µM
GI50 (SF-268 CNS): 34.7 µM
TGI (SF-268 CNS): > 100 µM
GI50 (SF-295 CNS): 4.76 µM
TGI (SF-295 CNS): > 100 µM
GI50 (SF-539 CNS): 1.67 µM
TGI (SF-539 CNS): 3.07 µM
GI50 (SK-MEL-2 melanoma): 61.8 µM
TGI (SK-MEL-2 melanoma): > 100 µM
GI50 (SK-MEL-28 melanoma): 49.2 µM
TGI (SK-MEL-28 melanoma): > 100 µM
GI50 (SK-MEL-5 melanoma): 22.6 µM
TGI (SK-MEL-5 melanoma): > 100 µM
GI50 (SK-OV-3 ovarian): 25.5 µM
TGI (SK-OV-3 ovarian): 61.6 µM
GI50 (SN12C renal): 19.9 µM
TGI (SN12C renal): > 100 µM
GI50 (SNB-19 CNS): 57.1 µM
TGI (SNB-19 CNS): > 100 µM
GI50 (SNB-75 CNS): > 100 µM
TGI (SNB-75 CNS): > 100 µM
GI50 (SW-620 colon): 46.9 µM
TGI (SW-620 colon): > 100 µM
GI50 (T-47D breast): 31 µM
TGI (T-47D breast): > 100 µM
GI50 (TK-10 renal): > 100 µM
TGI (TK-10 renal): > 100 µM
GI50 (U251 CNS): 50.1 µM
TGI (U251 CNS): > 100 µM
GI50 (UACC-257 melanoma): 78.5 µM
TGI (UACC-257 melanoma): > 100 µM
GI50 (UACC-62 melanoma): 37.2 µM
TGI (UACC-62 melanoma): > 100 µM
GI50 (UO-31 renal): 0.405 µM
TGI (UO-31 renal): 1.49 µM
